Experimental findings from patent US10064839B2, “Methods of treating liver diseases” (Zafgen, Inc., priority 2012, dated 2018) are described below.

The subject of the experiment is diet induced obese mice (C57BL6). In words: Diet induced obese mice, 10 days oral 30 mg/kg: body weight and serum cholesterol. It counts as in vivo, mouse. The following applies: DIO C57BL6 mice, 30 mg/kg oral gavage; for Cholesterol Change: serum. On the procedure:
Compounds were tested in diet induced obese mice (C57BL6) that were on a 65% high fat diet for 8-10 weeks. Mice were dosed for 10 days by oral gavage with 30 mg/kg of the compounds listed. Their body weights were recorded along with serum chemistries including cholesterol.

Regarding `CCN(CC)C/C=C\c1ccccc1S(=O)(=O)Cc1ccc(-c2ccoc2)c(OC)c1C(=O)O`, the “Body Weight Change” value is on record as −6.0% and the “Cholesterol Change” value was “No change”.
`CCN(CC)C/C=C\c1cc(F)ccc1S(=O)(=O)Nc1ccc2c(c1C(=O)O)OCc1occc1-2`: the “Body Weight Change” value is listed as −7.0% and the “Cholesterol Change” value is −35%.
As for `CCN(CC)C/C=C\c1cc(F)ccc1S(=O)(=O)Nc1ccc2c(c1C(=O)O)OCCc1occc1-2`, the “Body Weight Change” value is listed as −2.1% and the “Cholesterol Change” value is “No change”.
For `CCN(CC)C/C=C\c1cc(F)ccc1S(=O)(=O)Nc1ccc2c(ncc3occc32)c1C(=O)O`, the “Body Weight Change” value is −16% and the “Cholesterol Change” value is given as “No change”.
On to `CCN(CC)C/C=C\c1cc(F)ccc1S(=O)(=O)Nc1ccc2c(c1C(=O)O)OC[C@H]1CCCN21`, for which the “Body Weight Change” value is −2.0% and the “Cholesterol Change” value is listed as −24%.
